Experimental data as given in patent US9125913B2, “Bcl-2-selective apoptosis-inducing agents for the treatment of cancer and immune diseases” (AbbVie Inc., priority 2008, dated 2015).

What follows are molecules tested on GST-Bcl-2 (assay: TR-FRET binding assay, Bcl-2). Conditions: TR-FRET Ki values.
How it was run: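 Ki values come from Wang's competitive-binding equation applied to TR-FRET signal (excitation 340/35 nm; emission 520/525 nm F-Bak peptide, 495/510 nm Tb antibody). Protein, probe and antibody incubated with compound 3 h at room temperature; dilution series began at 50 μM as 2× stock in 10% DMSO.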

Which “Binding selectivity ratio (Bcl-XL Ki/Bcl-2 Ki)” value (“Binding selectivity ratio” for short) does the source give for CC1(C)CCC(CN2CCN(c3ccc(C(=O)NS(=O)(=O)c4ccc(NCC5CCN(C(=O)OCc6ccccc6)CC5)c([N+](=O)[O-])c4)c(Oc4ccc5[nH]ccc5c4)c3)CC2)=C(c2ccc(Cl)cc2)C1 [EXAMPLE 356, benzyl 4-({[4-({[4-(4-{[2-(4-chlorophenyl)-4,4-dimethylcyclohex-1-en-1-yl]methyl}piperazin-1-yl)-2-(1H-indol-5-yloxy)benzoyl]amino}sulfonyl)-2-nitrophenyl]amino}methyl)piperidine-1-carboxylate] here?
The value was greater than 131.6.

CC1(C)CCC(CN2CCN(c3ccc(C(=O)NS(=O)(=O)c4ccc(OCC5CCOCC5)c(C(N)=O)c4)c(Oc4ccc5[nH]ccc5c4)c3)CC2)=C(c2ccc(Cl)cc2)C1 [EXAMPLE 357, N-{[3-(aminocarbonyl)-4-(tetrahydro-2H-pyran-4-ylmethoxy)phenyl]sulfonyl}-4-(4-{[2-(4-chlorophenyl)-4,4-dimethylcyclohex-1-en-1-yl]methyl}piperazin-1-yl)-2-(1H-indol-5-yloxy)benzamide] was tested. Which “Binding selectivity ratio” value did it give?
Its value is greater than 493.9.

How did the “Binding selectivity ratio” value turn out when O=C(NS(=O)(=O)c1ccc(NC2CCN(C3CCOCC3)CC2)c([N+](=O)[O-])c1)c1ccc(N2CCN(Cc3ccc(C(F)(F)F)cc3-c3ccc(Cl)cc3)CC2)cc1Oc1ccc2[nH]ccc2c1 [EXAMPLE 358, 4-(4-{[4′-chloro-5-(trifluoromethyl)-1,1′-biphenyl-2-yl]methyl}piperazin-1-yl)-2-(1H-indol-5-yloxy)-N-({3-nitro-4-[(1-tetrahydro-2H-pyran-4-ylpiperidin-4-yl)amino]phenyl}sulfonyl)benzamide] was run?
Its value is greater than 121.8.

For CC(C)(C)c1ccc(CN2CCN(c3ccc(C(=O)NS(=O)(=O)c4ccc(NC5CCN(C6CCOCC6)CC5)c([N+](=O)[O-])c4)c(Oc4ccc5[nH]ccc5c4)c3)CC2)c(-c2ccc(Cl)cc2)c1 [EXAMPLE 359, 4-{4-[(5-tert-butyl-4′-chloro-1,1′-biphenyl-2-yl)methyl]piperazin-1-yl}-2-(1H-indol-5-yloxy)-N-({3-nitro-4-[(1-tetrahydro-2H-pyran-4-ylpiperidin-4-yl)amino]phenyl}sulfonyl)benzamide], which “Binding selectivity ratio” value is on record?
The value was greater than 49.0.

With Cn1cncc1CNc1ccc(S(=O)(=O)NC(=O)c2ccc(N3CCN(CC4=C(c5ccc(Cl)cc5)CC(C)(C)CC4)CC3)cc2Oc2ccc3[nH]ccc3c2)cc1[N+](=O)[O-] [EXAMPLE 360, 4-(4-{[2-(4-chlorophenyl)-4,4-dimethylcyclohex-1-en-1-yl]methyl}piperazin-1-yl)-2-(1H-indol-5-yloxy)-N-[(4-{[(1-methyl-1H-imidazol-5-yl)methyl]amino}-3-nitrophenyl)sulfonyl]benzamide] as the molecule, how does the “Binding selectivity ratio” value read?
The value was 633.9.

CC1(C)CCC(CN2CCN(c3ccc(C(=O)NS(=O)(=O)c4ccc(S(=O)(=O)N5CCOCC5)cc4)c(Oc4ccc5[nH]ccc5c4)c3)CC2)=C(c2ccc(Cl)cc2)C1 [EXAMPLE 361, 4-(4-{[2-(4-chlorophenyl)-4,4-dimethylcyclohex-1-en-1-yl]methyl}piperazin-1-yl)-2-(1H-indol-5-yloxy)-N-{[4-(morpholin-4-ylsulfonyl)phenyl]sulfonyl}benzamide] was tested. Which “Binding selectivity ratio” value did it give?
The value was greater than 92.6.

Which “Binding selectivity ratio” value does the source give for CC1(C)CCC(CN2CCN(c3ccc(C(=O)NS(=O)(=O)c4ccc(NN5CCS(=O)(=O)CC5)c([N+](=O)[O-])c4)c(Oc4ccc5[nH]ccc5c4)c3)CC2)=C(c2ccc(Cl)cc2)C1 [EXAMPLE 362, 4-(4-{[2-(4-chlorophenyl)-4,4-dimethylcyclohex-1-en-1-yl]methyl}piperazin-1-yl)-N-({4-[(1,1-dioxidothiomorpholin-4-yl)amino]-3-nitrophenyl}sulfonyl)-2-(1H-indol-5-yloxy)benzamide] here?
The value was 3548.2.

Which “Binding selectivity ratio” value does the source give for CC1(C)CCC(CN2CCN(c3ccc(C(=O)NS(=O)(=O)c4ccc(NC5CCC(N6CCOCC6)CC5)c([N+](=O)[O-])c4)c(Oc4ccc5[nH]ccc5c4)c3)CC2)=C(c2ccc(Cl)cc2)C1 (stereo not shown) [EXAMPLE 363, 4-(4-{[2-(4-chlorophenyl)-4,4-dimethylcyclohex-1-en-1-yl]methyl}piperazin-1-yl)-2-(1H-indol-5-yloxy)-N-({4-[(4-morpholin-4-ylcyclohexyl)amino]-3-nitrophenyl}sulfonyl)benzamide] here?
The value was greater than 3670.5.

How did the “Binding selectivity ratio” value turn out when CC1(C)CCC(CN2CCN(c3ccc(C(=O)NS(=O)(=O)c4cnc(OCC5CCOCC5)c(Br)c4)c(Oc4cccc5[nH]ccc45)c3)CC2)=C(c2ccc(Cl)cc2)C1 [EXAMPLE 364, N-{[5-bromo-6-(tetrahydro-2H-pyran-4-ylmethoxy)pyridin-3-yl]sulfonyl}-4-(4-{[2-(4-chlorophenyl)-4,4-dimethylcyclohex-1-en-1-yl]methyl}piperazin-1-yl)-2-(1H-indol-4-yloxy)benzamide] was run?
The value was 12197.3.

How did the “Binding selectivity ratio” value turn out when CC1(C)CCC(CN2CCN(c3ccc(C(=O)NS(=O)(=O)c4cnc(NCC5CCOCC5)c(-c5nccs5)c4)c(Oc4cccc5[nH]ccc45)c3)CC2)=C(c2ccc(Cl)cc2)C1 [EXAMPLE 365, 4-(4-{[2-(4-chlorophenyl)-4,4-dimethylcyclohex-1-en-1-yl]methyl}piperazin-1-yl)-2-(1H-indol-4-yloxy)-N-{[6-[(tetrahydro-2H-pyran-4-ylmethyl)amino]-5-(1,3-thiazol-2-yl)pyridin-3-yl]sulfonyl}benzamide] was run?
The value was greater than 612.9.

How did the “Binding selectivity ratio” value turn out when CC1(C)CCC(CN2CCN(c3ccc(C(=O)NS(=O)(=O)c4ccc(NCC5CCOCC5)c(C#N)c4)c(Oc4cccc5[nH]ccc45)c3)CC2)=C(c2ccc(Cl)cc2)C1 [EXAMPLE 366, 4-(4-{[2-(4-chlorophenyl)-4,4-dimethylcyclohex-1-en-1-yl]methyl}piperazin-1-yl)-N-({3-cyano-4-[(tetrahydro-2H-pyran-4-ylmethyl)amino]phenyl}sulfonyl)-2-(1H-indol-4-yloxy)benzamide] was run?
Its value is greater than 121.0.

With CC1(C)CCC(CN2CCN(c3ccc(C(=O)NS(=O)(=O)c4ccc(NCC5CCOCC5)c(C#N)c4)c(Oc4ccc5[nH]ccc5c4)c3)CC2)=C(c2ccc(Cl)cc2)C1 [EXAMPLE 367, 4-(4-{[2-(4-chlorophenyl)-4,4-dimethylcyclohex-1-en-1-yl]methyl}piperazin-1-yl)-N-({3-cyano-4-[(tetrahydro-2H-pyran-4-ylmethyl)amino]phenyl}sulfonyl)-2-(1H-indol-5-yloxy)benzamide] as the molecule, how does the “Binding selectivity ratio” value read?
The value was greater than 143.2.

With CC(C)C[C@@H](CO)Nc1ccc(S(=O)(=O)NC(=O)c2ccc(N3CCN(CC4=C(c5ccc(Cl)cc5)CC(C)(C)CC4)CC3)cc2Oc2ccc3[nH]ccc3c2)cc1[N+](=O)[O-] [EXAMPLE 369, 4-(4-{[2-(4-chlorophenyl)-4,4-dimethylcyclohex-1-en-1-yl]methyl}piperazin-1-yl)-N-[(4-{[(1S)-1-(hydroxymethyl)-3-methylbutyl]amino}-3-nitrophenyl)sulfonyl]-2-(1H-indol-5-yloxy)benzamide] as the molecule, how does the “Binding selectivity ratio” value read?
The value was greater than 0.8.
